From the NIST ThermoML archive (doi:10.1021/acs.jced.7b00106)
Numbers after ± are expanded uncertainties.

Conditions: Hot wire method

FC(F)(F)/C=C/Cl [(E)-1-chloro-3,3,3-trifluoroprop-1-ene]
Conditions | thermal conductivity [W/m/K]
343.36 K, 65455 kPa, Liquid | 0.09919 ± 0.0076
343.39 K, 244 kPa, Gas | 0.01403 ± 0.0005
343.41 K, 34281 kPa, Liquid | 0.08798 ± 0.0079
343.43 K, 53923 kPa, Liquid | 0.09546 ± 0.008
343.44 K, 254 kPa, Gas | 0.0143 ± 0.0005
343.54 K, 43743 kPa, Liquid | 0.09133 ± 0.0079
343.62 K, 34264 kPa, Liquid | 0.08757 ± 0.0066
343.63 K, 177 kPa, Gas | 0.01444 ± 0.00051
343.68 K, 26051 kPa, Liquid | 0.08479 ± 0.0055
343.71 K, 368 kPa, Gas | 0.01422 ± 0.0005
343.72 K, 113 kPa, Gas | 0.01433 ± 0.00051
343.77 K, 19020 kPa, Liquid | 0.08131 ± 0.0047
343.82 K, 116 kPa, Gas | 0.01436 ± 0.00051
343.85 K, 65463 kPa, Liquid | 0.09884 ± 0.0065
343.89 K, 252 kPa, Gas | 0.01433 ± 0.00051
343.9 K, 26047 kPa, Liquid | 0.08436 ± 0.0032
343.93 K, 12786 kPa, Liquid | 0.07777 ± 0.0024
343.93 K, 53925 kPa, Liquid | 0.09489 ± 0.0078
343.97 K, 19023 kPa, Liquid | 0.08066 ± 0.0046
344.06 K, 43740 kPa, Liquid | 0.09102 ± 0.0049
344.06 K, 65472 kPa, Liquid | 0.09859 ± 0.0066
344.08 K, 176 kPa, Gas | 0.01441 ± 0.00051
344.15 K, 365 kPa, Gas | 0.0142 ± 0.0005
344.15 K, 53918 kPa, Liquid | 0.09481 ± 0.0079
344.17 K, 12778 kPa, Liquid | 0.07722 ± 0.0032
344.2 K, 113 kPa, Gas | 0.01446 ± 0.00051
344.28 K, 117 kPa, Gas | 0.01435 ± 0.00051
344.3 K, 43734 kPa, Liquid | 0.09086 ± 0.005
344.35 K, 250 kPa, Gas | 0.01435 ± 0.00051
344.48 K, 465 kPa, Gas | 0.01396 ± 0.00049
344.56 K, 175 kPa, Gas | 0.01444 ± 0.00051
344.7 K, 114 kPa, Gas | 0.01426 ± 0.0005
344.79 K, 119 kPa, Gas | 0.01436 ± 0.00051
344.84 K, 248 kPa, Gas | 0.01433 ± 0.00051
344.84 K, 463 kPa, Gas | 0.01404 ± 0.00058
344.95 K, 465 kPa, Gas | 0.01434 ± 0.00054
345.08 K, 174 kPa, Gas | 0.01445 ± 0.00051
345.19 K, 360 kPa, Gas | 0.01419 ± 0.0005
345.23 K, 114 kPa, Gas | 0.01452 ± 0.00051
345.31 K, 120 kPa, Gas | 0.01441 ± 0.00051
345.34 K, 463 kPa, Gas | 0.01431 ± 0.00052
345.37 K, 246 kPa, Gas | 0.01436 ± 0.00051
345.44 K, 465 kPa, Gas | 0.0143 ± 0.0005
345.7 K, 358 kPa, Gas | 0.01431 ± 0.0005
345.9 K, 245 kPa, Gas | 0.01451 ± 0.00051
361.58 K, 586 kPa, Fluid (supercritical or subcritical phases) | 0.01605 ± 0.0014
361.67 K, 483 kPa, Fluid (supercritical or subcritical phases) | 0.01602 ± 0.0013
361.68 K, 45282 kPa, Liquid | 0.08799 ± 0.0024
361.69 K, 33938 kPa, Liquid | 0.0832 ± 0.0012
361.69 K, 33954 kPa, Liquid | 0.08326 ± 0.0029
361.7 K, 45281 kPa, Liquid | 0.08796 ± 0.0018
361.73 K, 23489 kPa, Liquid | 0.07844 ± 0.0025
361.74 K, 23503 kPa, Liquid | 0.07846 ± 0.0029
361.77 K, 371 kPa, Fluid (supercritical or subcritical phases) | 0.01613 ± 0.0014
361.79 K, 26408 kPa, Liquid | 0.07982 ± 0.0022
361.8 K, 26407 kPa, Liquid | 0.07977 ± 0.0018
361.83 K, 39898 kPa, Liquid | 0.0857 ± 0.0085
361.83 K, 39907 kPa, Liquid | 0.0857 ± 0.0086
361.88 K, 33923 kPa, Liquid | 0.08317 ± 0.0014
361.89 K, 33938 kPa, Liquid | 0.0832 ± 0.0017
361.92 K, 588 kPa, Fluid (supercritical or subcritical phases) | 0.01611 ± 0.0016
361.93 K, 45278 kPa, Liquid | 0.08791 ± 0.0016
361.94 K, 45270 kPa, Liquid | 0.08806 ± 0.0016
361.98 K, 23477 kPa, Liquid | 0.07836 ± 0.00088
361.98 K, 23492 kPa, Liquid | 0.07838 ± 0.0018
362.01 K, 484 kPa, Fluid (supercritical or subcritical phases) | 0.01607 ± 0.002
362.05 K, 26376 kPa, Liquid | 0.07972 ± 0.0009
362.05 K, 26398 kPa, Liquid | 0.07971 ± 0.0012
362.05 K, 39862 kPa, Liquid | 0.08563 ± 0.0016
362.08 K, 39906 kPa, Liquid | 0.08546 ± 0.0021
362.14 K, 33914 kPa, Liquid | 0.08314 ± 0.00095
362.14 K, 33942 kPa, Liquid | 0.08313 ± 0.0019
362.16 K, 19344 kPa, Liquid | 0.07625 ± 0.00088
362.18 K, 23467 kPa, Liquid | 0.07857 ± 0.0022
362.19 K, 8420 kPa, Liquid | 0.06998 ± 0.0011
362.2 K, 3010 kPa, Liquid | 0.06622 ± 0.00079
362.2 K, 8440 kPa, Liquid | 0.07 ± 0.00083
362.2 K, 45249 kPa, Liquid | 0.0878 ± 0.004
362.2 K, 45283 kPa, Liquid | 0.08787 ± 0.0021
362.21 K, 3023 kPa, Liquid | 0.06627 ± 0.00076
362.21 K, 23488 kPa, Liquid | 0.07836 ± 0.0013
362.23 K, 790 kPa, Liquid | 0.06431 ± 0.0035
362.23 K, 805 kPa, Liquid | 0.06452 ± 0.0023
362.24 K, 5520 kPa, Liquid | 0.06804 ± 0.00086
362.24 K, 5538 kPa, Liquid | 0.06811 ± 0.001
362.26 K, 19400 kPa, Liquid | 0.07636 ± 0.00085
362.27 K, 587 kPa, Fluid (supercritical or subcritical phases) | 0.01619 ± 0.002
362.3 K, 11679 kPa, Liquid | 0.07201 ± 0.00085
362.3 K, 11690 kPa, Liquid | 0.07201 ± 0.00091
362.31 K, 39856 kPa, Liquid | 0.08563 ± 0.0017
362.31 K, 39891 kPa, Liquid | 0.08561 ± 0.0014
362.32 K, 26374 kPa, Liquid | 0.07971 ± 0.0011
362.32 K, 26405 kPa, Liquid | 0.07971 ± 0.0011
362.37 K, 484 kPa, Fluid (supercritical or subcritical phases) | 0.0162 ± 0.0018
362.41 K, 33911 kPa, Liquid | 0.0832 ± 0.0013
362.42 K, 8419 kPa, Liquid | 0.06999 ± 0.0017
362.42 K, 33938 kPa, Liquid | 0.08309 ± 0.001
362.44 K, 8433 kPa, Liquid | 0.06997 ± 0.0017
362.46 K, 3010 kPa, Liquid | 0.0662 ± 0.0012
362.47 K, 3011 kPa, Liquid | 0.0662 ± 0.0012
362.47 K, 15419 kPa, Liquid | 0.0741 ± 0.00083
362.47 K, 23460 kPa, Liquid | 0.07827 ± 0.0058
362.48 K, 5516 kPa, Liquid | 0.06801 ± 0.0016
362.48 K, 15443 kPa, Liquid | 0.07414 ± 0.001
362.48 K, 23476 kPa, Liquid | 0.07831 ± 0.004
362.48 K, 45268 kPa, Liquid | 0.08777 ± 0.0021
362.48 K, 45271 kPa, Liquid | 0.08777 ± 0.0021
362.49 K, 790 kPa, Liquid | 0.06443 ± 0.0012
362.49 K, 5526 kPa, Liquid | 0.06804 ± 0.0011
362.5 K, 790 kPa, Liquid | 0.06446 ± 0.0013
362.51 K, 370 kPa, Fluid (supercritical or subcritical phases) | 0.01626 ± 0.0014
362.54 K, 11661 kPa, Liquid | 0.0719 ± 0.0019
362.55 K, 11680 kPa, Liquid | 0.07196 ± 0.0015
362.57 K, 39863 kPa, Liquid | 0.08553 ± 0.0019
362.58 K, 39864 kPa, Liquid | 0.08552 ± 0.0019
362.6 K, 26399 kPa, Liquid | 0.07968 ± 0.0016
362.6 K, 26401 kPa, Liquid | 0.07967 ± 0.0016
362.61 K, 19433 kPa, Liquid | 0.07636 ± 0.0012
362.65 K, 15399 kPa, Liquid | 0.07408 ± 0.001
362.66 K, 587 kPa, Fluid (supercritical or subcritical phases) | 0.0163 ± 0.0022
362.66 K, 15425 kPa, Liquid | 0.07408 ± 0.00098
362.67 K, 8422 kPa, Liquid | 0.06992 ± 0.0013
362.68 K, 8413 kPa, Liquid | 0.06988 ± 0.0018
362.69 K, 33907 kPa, Liquid | 0.08302 ± 0.0059
362.69 K, 33929 kPa, Liquid | 0.08306 ± 0.0032
362.7 K, 19433 kPa, Liquid | 0.07633 ± 0.0015
362.74 K, 5502 kPa, Liquid | 0.06792 ± 0.0012
362.75 K, 3008 kPa, Liquid | 0.06615 ± 0.00098
362.75 K, 3026 kPa, Liquid | 0.06618 ± 0.00099
362.75 K, 5530 kPa, Liquid | 0.06798 ± 0.00077
362.75 K, 23458 kPa, Liquid | 0.07811 ± 0.0018
362.75 K, 23492 kPa, Liquid | 0.07827 ± 0.002
362.75 K, 45227 kPa, Liquid | 0.08785 ± 0.0013
362.76 K, 484 kPa, Fluid (supercritical or subcritical phases) | 0.01624 ± 0.0016
362.76 K, 45255 kPa, Liquid | 0.08771 ± 0.0017
362.77 K, 783 kPa, Liquid | 0.06438 ± 0.0012
362.77 K, 802 kPa, Liquid | 0.06442 ± 0.00097
362.8 K, 11664 kPa, Liquid | 0.07188 ± 0.0012
362.81 K, 11670 kPa, Liquid | 0.07191 ± 0.00093
362.83 K, 15386 kPa, Liquid | 0.07403 ± 0.0011
362.86 K, 39872 kPa, Liquid | 0.08551 ± 0.00099
362.87 K, 15400 kPa, Liquid | 0.07403 ± 0.0015
362.87 K, 39835 kPa, Liquid | 0.08548 ± 0.0013
362.89 K, 367 kPa, Fluid (supercritical or subcritical phases) | 0.01631 ± 0.00069
362.89 K, 26375 kPa, Liquid | 0.07958 ± 0.0024
